From EP4707280A1, “1,4-CINEOLE DERIVATIVE AND INTERMEDIATE THEREOF, HERBICIDE CONTAINING SAID DERIVATIVE AS ACTIVE INGREDIENT, METHOD FOR USING HERBICIDE, AND METHOD FOR PREPARING AGROCHEMICAL COMPOSITION” (HOKKO CHEMICAL INDUSTRY CO., LTD., priority 2023, dated 2024)

How the values were obtained:
Type in all cases: in vivo
[1] = test system: Echinochloa crus-galli var. formosensis; experiment: Test Example 1: herbicidal effect test by soil application in paddy rice; details: 120 g active ingredient per 10 ares, applied immediately after sowing, flooded pots, 14 days after application; for pest or weed control at 1200 g/ha: Echinochloa crus-galli, soil, 336 h, read-out: weed inhibition rate
In short: (§1)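 Soil-applied test under flooded paddy conditions (~3 cm water) in a glass greenhouse. Seeds were sown shallow (0–1 cm, 30 per species), then compound was dripped in as diluted emulsifiable concentrate at 120 g a.i./10 a.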

Scirpus juncoides [2] = experiment: as above; details: 120 g active ingredient per 10 ares, applied immediately after sowing, flooded pots, 14 days after application; for pest or weed control at 1200 g/ha: Schoenoplectiella juncoides, soil, 336 h, read-out: weed inhibition rate
In short: as §1

[3] = test system: Echinochloa crus-galli var. formosensis; experiment: Test Example 2: herbicidal effect test by application during growth period of paddy rice; details: 120 g per 10 ares, applied seven days after sowing, flooded pots, 14 days after application; for inhibition at 1200 g/ha: Echinochloa crus-galli, read-out: weed inhibition rate
In short: (§2)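 Weeds sown into puddled, flooded paddy soil received a post-emergence water application of emulsifiable concentrate at 120 g active ingredient per 10 ares, seven days after sowing. Herbicidal effect was rated 14 days later as inhibition (%).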

Chenopodium album = experiment: Test Example 3: herbicidal effect test by soil application in upland field; details: 120 g per 10 ares, sprayed one day after sowing, 14 days after application, read-out: weed inhibition rate
In short: (§3)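 Pre-emergence test: seeds mixed into top 1 cm of alluvial loam upland soil in pots; emulsifiable concentrate diluted in water sprayed on soil one day after sowing at 100 L/10 a, 120 g a.i./10 a. Weed inhibition rate (%) scored at 14 days, in duplicate.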

Amaranthus viridis = experiment: as above; details: 120 g per 10 ares, sprayed one day after sowing, 14 days after application
In short: as §3

Echinochloa crus-galli [4] = experiment: as above; details: 120 g per 10 ares, sprayed one day after sowing, 14 days after application; for inhibition at 1200 g/ha: Echinochloa crus-galli, read-out: weed inhibition rate
In short: as §3

[5] = test system: Echinochloa crus-galli var. formosensis; experiment: Test Example 5: herbicidal effect test by soil application in paddy rice (low dose); details: 7.5 g per 10 ares, applied immediately after sowing, flooded pots, 14 days after application; for inhibition at 75 g/ha: Echinochloa crus-galli, soil, 336 h, read-out: weed inhibition rate
In short: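 Pots of puddled, fertilized paddy soil receive 30 seeds per species at 0–1 cm depth and are flooded to about 3 cm. The diluted emulsifiable concentrate is then dropped onto the water, delivering 7.5 g active ingredient per 10 ares. Greenhouse grown; herbicidal effect scored 14 days later, two replicates.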

Digitaria ciliaris [6] = experiment: Test Example 4: herbicidal effect test by stem and leaf treatment in upland field; details: 120 g per 10 ares, sprayed seven days after sowing, upland soil, 14 days after application; for inhibition at 1200 g/ha: Digitaria ciliaris, read-out: weed inhibition rate
[7] = test system: Echinochloa crus-galli var. formosensis; experiment: Test Example 6: herbicidal effect test by application during growth period of paddy rice (low dose); details: 7.5 g per 10 ares, applied seven days after sowing, flooded pots, 14 days after application; for inhibition at 75 g/ha: Echinochloa crus-galli, read-out: weed inhibition rate
In short: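 Paddy-soil pots, flooded ~3 cm after sowing weed seeds at 0-1 cm depth, greenhouse-grown. Seven days after sowing, diluted emulsifiable concentrate applied by dropper at 7.5 g active ingredient per 10 ares. Weed inhibition rate (%) scored 14 days after application, in duplicate.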

Scirpus juncoides [8] = experiment: Test Example 2: herbicidal effect test by application during growth period of paddy rice; details: 120 g per 10 ares, applied seven days after sowing, flooded pots, 14 days after application
In short: as §2

Lindernia pyxidaria [9] = experiment: as above; details: 120 g per 10 ares, applied seven days after sowing, flooded pots, 14 days after application, read-out: weed inhibition rate
In short: as §2

Digitaria ciliaris [10] = experiment: Test Example 3: herbicidal effect test by soil application in upland field; details: 120 g per 10 ares, sprayed one day after sowing, 14 days after application; for inhibition at 1200 g/ha: Digitaria ciliaris, read-out: weed inhibition rate
In short: as §3

Echinochloa crus-galli [11] = experiment: Test Example 4: herbicidal effect test by stem and leaf treatment in upland field; details: 120 g per 10 ares, sprayed seven days after sowing, upland soil, 14 days after application; for inhibition at 1200 g/ha: Echinochloa crus-galli, read-out: weed inhibition rate
Echinochloa crus-galli [12] = experiment: Test Example 8: herbicidal effect test by stem and leaf treatment in upland field (low dose); details: 7.5 g per 10 ares, sprayed seven days after sowing, upland soil, 14 days after application; for inhibition at 75 g/ha: Echinochloa crus-galli, read-out: weed inhibition rate
Monochoria vaginalis [13] = experiment: Test Example 1: herbicidal effect test by soil application in paddy rice; details: 120 g active ingredient per 10 ares, applied immediately after sowing, flooded pots, 14 days after application; for pest or weed control at 1200 g/ha: Pontederia vaginalis, soil, 336 h, read-out: weed inhibition rate
Protocol: (§4) Wagner pots with an area of […] were filled with paddy soil, followed by addition of water and incorporation of chemical fertilizer (N:P:K = 16:16:16), after which puddling was performed. After that, seeds of Echinochloa crus-galli var. formosensis, broad-leaved weeds (Lindernia pyxidaria and Monochoria vaginalis), and Scirpus juncoides were sown at a depth of 0 cm to 1 cm, 30 seeds each. Immediately after sowing, the pots were flooded and a water depth of approximately 3 cm was maintained. Subsequent management was conducted in a glass greenhouse. Immediately thereafter, an emulsifiable concentrate prepared according to Formulation Example 5 using the compound shown below was diluted with water, and a specified amount of the diluted solution was applied by dropper. The amount of the active ingredient to be applied was equivalent to 120 g per 10 ares.
(§5) The present test was conducted in duplicate for each chemical concentration group, and the weed inhibition rate (%) was determined 14 days after chemical application using the following formula (Math. 1). [formula]

Monochoria vaginalis [14] = experiment: Test Example 2: herbicidal effect test by application during growth period of paddy rice; details: Pontederia vaginalis; 120 g per 10 ares; applied seven days after sowing, flooded pots; 14 days after application; read-out: weed inhibition rate
In short: as §2

Lindernia pyxidaria [15] = experiment: Test Example 1: herbicidal effect test by soil application in paddy rice; details: 336 h, 120 g active ingredient per 10 ares, applied immediately after sowing, flooded pots, 14 days after application, read-out: weed inhibition rate
Protocol: as §4, §5

Digitaria ciliaris [16] = experiment: Test Example 8: herbicidal effect test by stem and leaf treatment in upland field (low dose); details: Digitaria ciliaris; 7.5 g per 10 ares; sprayed seven days after sowing, upland soil; 14 days after application; read-out: weed inhibition rate
Digitaria ciliaris [17] = experiment: Test Example 7: herbicidal effect test by soil application in upland field (low dose); details: 7.5 g per 10 ares, sprayed one day after sowing, 14 days after application
In short: (§6)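 Low-dose soil treatment at 7.5 g a.i. per 10 a, applied as a diluted emulsifiable concentrate sprayed onto the soil surface one day after sowing in upland alluvial loam. Duplicate pots; percent weed inhibition is read 14 days after application.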

Echinochloa crus-galli [18] = experiment: as above; details: 7.5 g per 10 ares, sprayed one day after sowing, 14 days after application
In short: as §6

Cc1cccc(C2C[C@]3(C)O[C@@]2(C(C)C)C[C@H]3OCc2ccccc2F)c1 (stereo partly drawn) [1-926, (1S,2R,4R)-2-((2-fluorobenzyl)oxy)-4-isopropyl-1-methyl-5-(m-tolyl)-7-oxabicyclo[2.2.1]heptane]
≥ 80%: pest or weed control at 1200 g/ha [1] | pest or weed control at 1200 g/ha (Scirpus juncoides [2]) | inhibition at 1200 g/ha [3] | inhibition at 1200 g/ha (Chenopodium album) | inhibition at 1200 g/ha (Amaranthus viridis; Amaranthus viridis, read-out: weed inhibition rate) | inhibition at 1200 g/ha (Echinochloa crus-galli [4])

Cc1cccc(CO[C@@H]2C[C@]3(C(C)C)O[C@@]2(C)CC3=O)c1 [2-352, (1R,4S,5R)-1-isopropyl-4-methyl-5-((3-methylbenzyl)oxy)-7-oxabicyclo[2.2.1]heptan-2-one]
≥ 80%: inhibition at 75 g/ha [5] | inhibition at 1200 g/ha (Digitaria ciliaris [6]) | inhibition at 75 g/ha [7] | pest or weed control at 1200 g/ha [1] | pest or weed control at 1200 g/ha (Scirpus juncoides [2]) | inhibition at 1200 g/ha [3] | inhibition at 1200 g/ha (Scirpus juncoides [8]; Schoenoplectiella juncoides, read-out: weed inhibition rate) | inhibition at 1200 g/ha (Lindernia pyxidaria [9]) | inhibition at 1200 g/ha (Digitaria ciliaris [10]) | inhibition at 1200 g/ha (Echinochloa crus-galli [4]) | inhibition at 1200 g/ha (Echinochloa crus-galli [11])

Cc1ccc(CO[C@@H]2C[C@]3(C(C)C)O[C@@]2(C)CC3=O)cc1 [2-350, (1R,4S,5R)-1-isopropyl-4-methyl-5-[(4-methylbenzyl)oxy]-7-oxabicyclo[2.2.1]heptan-2-one]
≥ 80%: inhibition at 75 g/ha [5] | inhibition at 1200 g/ha (Digitaria ciliaris [6]) | inhibition at 75 g/ha (Echinochloa crus-galli [12]) | inhibition at 75 g/ha [7] | pest or weed control at 1200 g/ha [1] | pest or weed control at 1200 g/ha (Scirpus juncoides [2]) | inhibition at 1200 g/ha [3] | inhibition at 1200 g/ha (Chenopodium album) | inhibition at 1200 g/ha (Digitaria ciliaris [10]) | inhibition at 1200 g/ha (Echinochloa crus-galli [4]) | pest or weed control at 1200 g/ha (Monochoria vaginalis [13]) | inhibition at 1200 g/ha (Echinochloa crus-galli [11])

CC(C)[C@]12C[C@@H](OCc3ccccc3F)[C@](C)(CC1c1ccccc1F)O2 (stereo partly drawn) [1-922, (1S,2R,4R)-2-((2-fluorobenzyl)oxy)-5-(2-fluorophenyl)-4-isopropyl-1-methyl-7-oxabicyclo[2.2.1]heptane]
≥ 80%: inhibition at 75 g/ha [5] | inhibition at 1200 g/ha (Digitaria ciliaris [6]) | pest or weed control at 1200 g/ha [1] | pest or weed control at 1200 g/ha (Scirpus juncoides [2]) | inhibition at 1200 g/ha [3] | inhibition at 1200 g/ha (Monochoria vaginalis [14]) | inhibition at 1200 g/ha (Echinochloa crus-galli [4]) | pest or weed control at 1200 g/ha (Monochoria vaginalis [13]) | pest or weed control at 1200 g/ha (Lindernia pyxidaria [15]) | inhibition at 1200 g/ha (Echinochloa crus-galli [11])

CC(C)[C@]12C[C@@H](OCc3ccccc3F)[C@](C)(CC1c1ccccc1)O2 (stereo partly drawn) [1-322, (1S,2R,4R)-2-((2-fluorobenzyl)oxy)-4-isopropyl-1-methyl-5-phenyl-7-oxabicyclo[2.2.1]heptane]
≥ 80%: inhibition at 75 g/ha [5] | inhibition at 1200 g/ha (Digitaria ciliaris [6]) | inhibition at 75 g/ha (Digitaria ciliaris [16]) | inhibition at 75 g/ha (Echinochloa crus-galli [12]) | inhibition at 75 g/ha [7] | pest or weed control at 1200 g/ha [1] | inhibition at 1200 g/ha [3] | inhibition at 1200 g/ha (Chenopodium album) | inhibition at 1200 g/ha (Echinochloa crus-galli [4]) | inhibition at 1200 g/ha (Echinochloa crus-galli [11])

CCOC(C)O[C@H]1C[C@]2(C)O[C@@]1(C(C)C)C[C@H]2OCc1ccccc1F (stereo partly drawn) [1-213, (1R,28,4S,5R)-2-(1-ethoxyethoxy)-5-((2-fluorobenzyl)oxy)-1-isopropyl-4-methyl-7-oxabicyclo[2.2.1]heptane]
≥ 80%: weed inhibition rate [5] | weed inhibition rate (Digitaria ciliaris [6]) | weed inhibition rate (Echinochloa crus-galli [12]) | weed inhibition rate [7] | weed inhibition rate [1] | weed inhibition rate (Scirpus juncoides [2]) | weed inhibition rate [3] | weed inhibition rate (Scirpus juncoides [8]) | weed inhibition rate (Digitaria ciliaris [17]) | weed inhibition rate (Echinochloa crus-galli [18]) | weed inhibition rate (Digitaria ciliaris [10]) | weed inhibition rate (Amaranthus viridis) | weed inhibition rate (Echinochloa crus-galli [4]) | weed inhibition rate (Monochoria vaginalis [13]) | weed inhibition rate (Echinochloa crus-galli [11])
